From publication PMC12432858, “Longitudinal imaging of therapeutic enzyme expression after gene therapy for Fabry disease using positron emission tomography and the radiotracer [^18F]AGAL” (Molecular Therapy, 2024)

Molecular target: T1, human α-galactosidase A (GLA; α-Gal A) (Homo sapiens, UniProt P06280)
T1 construct: heart tissue cryosections; no tag stated
T1 sequence (P06280 32-429): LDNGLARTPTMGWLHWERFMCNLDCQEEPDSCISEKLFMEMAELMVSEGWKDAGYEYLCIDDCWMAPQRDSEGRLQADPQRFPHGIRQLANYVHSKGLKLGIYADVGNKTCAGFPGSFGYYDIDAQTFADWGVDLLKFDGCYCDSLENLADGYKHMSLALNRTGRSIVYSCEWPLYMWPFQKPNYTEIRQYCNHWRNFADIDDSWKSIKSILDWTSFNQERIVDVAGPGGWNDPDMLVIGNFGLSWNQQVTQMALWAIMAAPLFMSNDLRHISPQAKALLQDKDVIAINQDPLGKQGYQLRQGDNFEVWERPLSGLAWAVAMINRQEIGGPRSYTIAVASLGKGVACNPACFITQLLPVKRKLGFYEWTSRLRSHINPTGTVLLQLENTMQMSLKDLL
Test: saturation autoradiography on heart sections, one-site specific binding fit
Conditions: pH 5.0 McIlvaine buffer, 23 °C, 60 min; nonspecific binding defined with [19F]AGAL; active site; covalent (proposed); labelled compound; GLA in tissue sections of AAVGLA-treated Gla knockout mice

Kd: ~0.02 µM
SMILES: O=C(CCCCCCCn1cc(CCCF)nn1)N1C2C(O)C(O)C(O)C(CO)C21 (stereo not shown) [[^18F]AGAL]
